# How the values were obtained:
# [1] = Encapsulation efficiency (indirect assay, magnetic bead removal, UV-visible/HPLC of supernatant); format: physicochemical; settings: 69 nM AuNPs
# Protocol: The AuNPs and the drug are brought into contact in a screw-cap 2 mL microtube, with magnetic bar stirring, at 37° C. for a time determined according to the kinetics of encapsulation obtained by UV-visible spectroscopy.
# In the case of travoprost, an encapsulation time of five days was chosen according to the encapsulation kinetics determined by UV spectroscopy at 278 nm (FIG. 9).
# The method used to determine the encapsulation efficiency rely on an indirect assay by evaluating what has not been encapsulated. Once the encapsulation is complete, the entire mixture is brought into contact with magnetic beads to allow the nanoparticles that contain the encapsulated drug to be removed from the medium. The residual supernatant is then analyzed by UV-visible spectroscopy and high-performance liquid chromatography (HPLC).
# To do so, a solution of 0.0005% phosphate buffered saline Tween™ (PBS-T) was prepared. The magnetic beads were then cleaned and 100 μL of magnetic beads were placed in a 1.5 mL microtube. The beads were then magnetized, and the supernatant was removed.
# 1 mL of the prepared PBS-T was added to the beads, the beads were then suspended with a vigorous vortex for 30 seconds. The beads were then magnetized, and the supernatant was removed. […]
# The final supernatant was analyzed by UV-Visible spectroscopy (λ=200-700 nm) and by high-performance liquid chromatography (HPLC).
# [2] = tested on: intraocular pressure in glaucomatous mice; assay: Intraocular pressure in microbead-induced hypertensive glaucoma model; format: in vivo, C57BL/6J mice
# Protocol: An in vivo glaucoma model involving the injection of exogenous microbeads into the anterior chamber was used (FIG. 17A). The injected beads partially block the trabecular meshwork resulting in intraocular pressure (IOP) elevation while causing no damage to the site of drug action. Two-month-old C57BL/6J mice were used. The IOP was followed with a tonometer (Tonolab®) specially designed for rodents. Animals were injected with 5 μL of microbeads with a dimeter of about 10 μm (7.2×10^6 microbeads/mL) in the anterior chamber of the left eye. For the encapsulation experiments, travoprost was solubilized in water/ethanol (50/50) in the presence of AuNPs. The solution was heated (65° C.) in order to evaporate the ethanol and to induce conformational changes of PEG molecules leading to a better encapsulation. The solution was thus completed with water until the initial volume. Hypertensive glaucoma was induced in adult C57BL/6 mice by injecting 5 μL of polystyrene microbeads (35,000 microbeads) with an average diameter of 10 μm in the anterior chamber of the eye. The dispersion of the microbeads at the level of the iridocorneal angle blocks the passage of the aqueous humor towards the trabecular meshwork (FIG. 17A). Mechanically, the decrease in drainage of the aqueous humor produces an increase in intraocular pressure which is measured with a tonometer of the Tonolab brand. […]
compound,measurement,setting,value
CC(C)OC(=O)CCC/C=C\C[C@@H]1[C@@H](/C=C/[C@@H](O)COc2cccc(C(F)(F)F)c2)[C@H](O)C[C@@H]1O [travoprost],Percentage of encapsulated travoprost,[1]; initial 80 μM travoprost,about 68.52%±4.032
same,Percentage of encapsulated travoprost,[1]; initial 120 μM travoprost,about 67.98%±3.877
same,Level of intraocular pressure after 24 hours,[2]; 24 hours after single topical application,"returned to a high level, similar to that before treatment"
same,Effect on intraocular pressure,"[2]; single topical application, glaucomatous mice",significantly but transiently decreased

# Source: patent US20190374478A1, “Ultrastable Gold Nanoparticles For Drug Delivery Applications And Synthesis Thereof” (Université Laval, priority 2016, published 2019)
